Tests used:
[1] = target: T1, GRO-binding protein/nucleolin (HeLa nuclear extracts) (Homo sapiens, UniProt P19338); experiment: EMSA of 32P-labeled oligonucleotides with HeLa nuclear extracts; details: 32P-labeled oligonucleotide, FIG. 6A
T1 construct: HeLa nuclear extracts used in EMSAs were purchased from Promega Inc. (bandshift grade); host or cells: HeLa nuclear extract (bandshift grade), purchased
Protocol: Oligonucleotides were 5′-labeled with 32p using T4 kinase. Labeled oligonucleotide (final concentration 1 nM, approximately 50,000 cpm) was preincubated for thirty minutes at 37° C. either alone or in the presence of unlabeled competitor oligonucleotide. Nuclear extracts were added, and the sample was incubated a further thirty minutes at 37° C. Both the preincubation and binding reactions were carried out in Buffer A (20 mM Tris. HCl pH 7.4, 140 mM KCl, 2.5 mM MgCl2, 1 mM dithiothreitol, 0.2 mM phenylmethyl sulfonyl fluoride and 8% (v/v) glycerol). Electrophoresis was carried out using 5% polyacrylamide gels in TBE buffer (90 mM Tris borate, 2 mM EDTA).
HeLa nuclear extracts used in EMSAs were purchased from Promega Inc. (bandshift grade). Nuclear and cytoplasmic extracts from MDA-MB-231 cells were prepared using the protocol described in F. M. Ausubel et al. Ausubel et al. (Eds.) (1996) Current Protocols in Molecular Biology, Wiley, N.Y., Section 12.1. Plasma membrane proteins were prepared from MDA-MB-231 cells using a method previously described. Yao et al. (1996) Biochemical Pharmacology 51, 431-436; Naito et al. (1988) J. Biol. Chem. 263, 11887-11891.
To investigate further the mechanism of the growth modulatory effects, binding of the oligonucleotides to cellular proteins was examined. […]

HeLa cells = experiment: MTT cell growth assay, HeLa cells; type: cell-based, human; details: 15 uM on day 1, half the initial dose on days 2-4; 3′-propylamino oligonucleotides; vs water control; FIG. 1C
Protocol: (§1) Cells were plated at low density ([…] cells per well, depending on cell line) in the appropriate serum-supplemented medium in 96-well plates (one plate per MTT assay time point) and grown under standard conditions of cell culture. The following day (day 1) oligonucleotide, or water as control, was added to the culture medium to give a final concentration of 15 uM. Further oligonucleotide, equivalent to half the initial dose, was added to the culture medium on days two, three and four.
(§2) Cells were assayed using the MTT assay (Morgan (1998) Methods. Mol. Biol. 79, 179-183) on days one, three, five, seven and nine after plating. The culture medium was not changed throughout the duration of the experiment (which was the time required for untreated cells to grow to confluence). Experiments were performed in triplicate and bars represent the standard error of the data.

[2] = target: T2, 106 kDa nuclear protein (p106, GRO-binding protein/nucleolin) (Homo sapiens, UniProt P19338); experiment: Southwestern blot of HeLa nuclear extracts; details: 32P-labeled oligonucleotide, 4° C.; FIG. 6D
T2 construct: HeLa nuclear extracts used in EMSAs were purchased from Promega Inc. (bandshift grade); host or cells: HeLa nuclear extract (bandshift grade), purchased
T2 sequence (P19338 whole entry): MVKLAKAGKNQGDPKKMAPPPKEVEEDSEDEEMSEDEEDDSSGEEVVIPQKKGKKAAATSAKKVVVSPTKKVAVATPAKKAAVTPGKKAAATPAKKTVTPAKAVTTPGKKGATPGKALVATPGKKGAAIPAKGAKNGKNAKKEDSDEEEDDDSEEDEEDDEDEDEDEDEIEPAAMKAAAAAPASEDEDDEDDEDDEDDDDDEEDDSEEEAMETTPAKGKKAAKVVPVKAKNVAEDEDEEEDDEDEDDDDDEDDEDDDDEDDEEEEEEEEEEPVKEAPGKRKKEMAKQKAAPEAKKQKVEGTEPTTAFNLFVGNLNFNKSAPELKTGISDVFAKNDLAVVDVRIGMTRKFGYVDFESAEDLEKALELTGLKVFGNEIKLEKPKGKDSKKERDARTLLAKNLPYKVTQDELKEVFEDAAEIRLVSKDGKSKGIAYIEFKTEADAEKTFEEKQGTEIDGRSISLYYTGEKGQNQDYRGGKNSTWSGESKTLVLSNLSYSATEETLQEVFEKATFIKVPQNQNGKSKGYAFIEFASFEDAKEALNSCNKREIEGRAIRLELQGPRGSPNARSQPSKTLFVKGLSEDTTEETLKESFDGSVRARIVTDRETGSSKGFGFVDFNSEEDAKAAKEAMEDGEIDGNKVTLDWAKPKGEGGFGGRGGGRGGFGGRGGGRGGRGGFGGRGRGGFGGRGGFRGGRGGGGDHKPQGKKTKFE
Protocol: Nuclear extracts were electrophoresed on a 8% polyacrylamide-SDS gel and transferred to polyvinylidene difluoride (PVDF) membrane by electroblotting using a Tris glycine/methanol (10% v/v) buffer. Immobilized proteins were denatured and renatured by washing for thirty minutes at 4° C. with 6 M guanidine. HCl followed by washes in 1:1, 1:2 and 1:4 dilutions of 6M guanidine in HEPES binding buffer (25 mM HEPES pH 7.9, 4 mM KCl, 3 mM MgCl2). The membrane was blocked by washing for one hour in a 5% solution of non-fat dried milk (NDM) in binding buffer.
Hybridization of the labeled oligonucleotide (1-4×10^6 cpm) took place for two hours at 4° C. in HEPES binding buffer supplemented with 0.25% NDM, 0.05% Nonidet P […] salmon sperm DNA and […] of an unrelated, mixed sequence 35-mer oligonucleotide (5′-[…] CTTCCTTCCTCTCCA-3′SEQ ID No: 19). Membranes were washed in binding buffer and visualized by autoradiography.
The molecular weight of the nuclear protein was more accurately determined by Southwestern blotting. HeLa nuclear extracts were electrophoresed on an 8% polyacrylamide-SDS gel and transferred to a PVDF membrane. The membrane was blocked and cut into strips. Each strip was incubated at 4° C. with a 32P-labeled G-rich oligonucleotide in the presence of unrelated unlabeled double stranded and single stranded DNA to block non-specific binding.

MCF-7 cells = experiment: MTT cell growth assay, MCF-7 cells; type: cell-based, human; details: 15 uM on day 1, half the initial dose on days 2-4; 3′-propylamino oligonucleotides; vs water control; FIG. 1D
Protocol: as §1, §2

DU145 cells = experiment: MTT cell growth assay, DU145 cells; type: cell-based, human; details: 15 uM on day 1, half the initial dose on days 2-4; 3′-propylamino oligonucleotides; vs water control; FIG. 1A
Protocol: as §1, §2

[3] = test system: MDA-MB-231 breast cancer cells; experiment: MTT cell growth assay, MDA-MB-231 cells; type: cell-based, human; details: for growth of MDA-MB-231 cells (MTT): 15 uM on day 1, half the initial dose on days 2-4, 3′-propylamino oligonucleotides, vs water control, FIG. 1B
Protocol: Cells were plated at low density ([…] cells per well, depending on cell line) in the appropriate serum-supplemented medium in 96-well plates (one plate per MTT assay time point) and grown under standard conditions of cell culture. The following day (day 1) oligonucleotide, or water as control, was added to the culture medium to give a final concentration of 15 uM. Further oligonucleotide, equivalent to half the initial dose, was added to the culture medium on days two, three and four. Cells were assayed using the MTT assay (Morgan (1998) Methods. Mol. Biol. 79, 179-183) on days one, three, five, seven and nine after plating. The culture medium was not changed throughout the duration of the experiment (which was the time required for untreated cells to grow to confluence). Experiments were performed in triplicate and bars represent the standard error of the data. For the experiment shown in FIG. 7A, MDA-MB-231 breast cancer cells (5×10^2 cells per well) were plated in a 96-well plate. After twenty-four hours, a single dose of oligonucleotide, or equal volume of PBS as a control, was added to the culture medium to a final concentration of 10 uM. Viable cells were assessed seven days after plating using the MTT assay. For the experiment using 3′-unmodified oligonucleotides (FIG. 7D), serum-supplemented medium was replaced by serum-free medium containing oligonucleotide (or serum-free medium alone in control wells). After incubation at 37° C. for four hours, fetal calf serum (Life Technologies, Inc.) was added to the medium to give 10% v/v.

T1 sequence (P19338 whole entry): as above

For “5′-GTTGTTTGG GGTGGT-3′ (GTTGTTTGGGGTGGT; DNA, backbone not given here; further chemistry not fully specified) [GRO15A]”, the “protein-oligonucleotide complex band (EMSA)” value [1] was “intense”, the “growth of HeLa cells (MTT)” value (HeLa cells) was “modulated proliferation” and the “hybridization to protein band at 106 kDa (Southwestern blot)” value [2] was “hybridized to a single protein band at 106 kDa”. For the same substance, the “growth of MCF-7 cells (MTT)” value (MCF-7 cells) was “modulated proliferation”, the “growth of DU145 cells (MTT)” value (DU145 cells) was “modulated proliferation” and the “growth of MDA-MB-231 cells (MTT)” value [3] was “modulated proliferation”.

In the case of “5′-TTTGGTGGTGGTGG TTGTGGTGGTGGTGG-3′ [GR029A]”, the “protein-oligonucleotide complex band (EMSA)” value [1] is reported as “intense”, the “growth of HeLa cells (MTT)” value (HeLa cells) is reported as “modulated proliferation” and the “hybridization to protein band at 106 kDa (Southwestern blot)” value [2] is reported as “hybridized to a single protein band at 106 kDa”. For the same substance, the “growth of MCF-7 cells (MTT)” value (MCF-7 cells) was “modulated proliferation”, the “growth of DU145 cells (MTT)” value (DU145 cells) was “modulated proliferation” and the “growth of MDA-MB-231 cells (MTT)” value [3] was “modulated proliferation”. The “antiproliferative activity, MDA-MB-231” value ([3]; single 10 uM dose, FIG. 7A) was “active”.

From US8114850B2, “Antiproliferative activity of G-rich oligonucleotides and method of using same to bind to nucleolin” (Advanced Cancer Therapeutics, LLC, priority 1999, dated 2012)
